# In patent US20100120690A1, “Polypeptides Having Antimicrobial Activity and Polynucleotides Encoding Same” (Novozymes Adenium Biotech A/S, priority 2005, published 2010):
# Tested on: Staphylococcus aureus, MRSA ST80 (2003)
# Assay: MIC, NCCLS/CLSI guidelines (Example 5), strain E
# Assay type: cell-based
# Settings: average of two independent experiments
# How it was run: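 MICs of purified plectasin peptides are measured according to NCCLS/CLSI guidance. Each value averages duplicate independent experiments and is given as a category relative to wild-type: 0 above 100%, 1 80-100%, 2 50-80%, 3 below 50%.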
sequence,measurement,setting,value
"GFGCNGPWDEDDMQCHNHCKSIKGYKGGYCAKGGFVCKCY (listed as Pseudoplectania nigrella) [wildtype, wildtype plectasin, parent antimicrobial polypeptide, reference compound]","MIC, strain E",,(22 μg/mL)
same,"Relative MIC, strain E",relative to wildtype Plectasin,1 (80-100% of Plectasin wildtype MIC)
